Laboratory results from article PMC3945162 (Psychopharmacology, 2013).
Several values for one entry are separate records, joined by “and”; a condition that tells them apart may be missing. Identical values can stand only once. Like-named read-outs stand apart in the source and are kept apart here.

Columns and labels:
[1] = test system: 5-HT2A; details: ref McLean et al. 2006; cited from earlier work
[2] = test system: rats trained to discriminate METH (1 mg/kg) from saline; format: in vivo, rat; details: METH-trained rats
[3] = test system: rats trained to discriminate DMT (5 mg/kg) from saline; format: in vivo, rat
[4] = biological target: T1, hNET (Homo sapiens, UniProt P23975); test: cell-based
T1 sequence (P23975 whole entry): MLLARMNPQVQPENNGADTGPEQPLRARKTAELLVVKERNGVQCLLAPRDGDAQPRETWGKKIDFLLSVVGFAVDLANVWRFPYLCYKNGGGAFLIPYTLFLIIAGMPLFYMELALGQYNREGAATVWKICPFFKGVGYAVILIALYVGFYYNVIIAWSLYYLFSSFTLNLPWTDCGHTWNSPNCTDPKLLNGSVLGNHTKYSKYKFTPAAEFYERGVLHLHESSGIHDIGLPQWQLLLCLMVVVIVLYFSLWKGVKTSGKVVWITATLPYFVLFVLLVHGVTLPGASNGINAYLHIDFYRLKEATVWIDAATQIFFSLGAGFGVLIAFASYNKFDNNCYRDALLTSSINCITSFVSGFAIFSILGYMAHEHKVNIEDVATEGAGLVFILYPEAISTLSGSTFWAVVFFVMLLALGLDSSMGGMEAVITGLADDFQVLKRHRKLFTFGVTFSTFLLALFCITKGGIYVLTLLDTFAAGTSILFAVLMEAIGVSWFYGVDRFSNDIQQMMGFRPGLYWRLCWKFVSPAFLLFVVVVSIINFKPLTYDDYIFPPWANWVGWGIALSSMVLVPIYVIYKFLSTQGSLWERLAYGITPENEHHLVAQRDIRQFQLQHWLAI

[5] = biological target: T2, human 5-HT1A receptor (Homo sapiens, UniProt P08908); test: [35S]GTPγS binding functional assay, HEK-5-HT1A; format: biochemical
T2 sequence (P08908 1-422): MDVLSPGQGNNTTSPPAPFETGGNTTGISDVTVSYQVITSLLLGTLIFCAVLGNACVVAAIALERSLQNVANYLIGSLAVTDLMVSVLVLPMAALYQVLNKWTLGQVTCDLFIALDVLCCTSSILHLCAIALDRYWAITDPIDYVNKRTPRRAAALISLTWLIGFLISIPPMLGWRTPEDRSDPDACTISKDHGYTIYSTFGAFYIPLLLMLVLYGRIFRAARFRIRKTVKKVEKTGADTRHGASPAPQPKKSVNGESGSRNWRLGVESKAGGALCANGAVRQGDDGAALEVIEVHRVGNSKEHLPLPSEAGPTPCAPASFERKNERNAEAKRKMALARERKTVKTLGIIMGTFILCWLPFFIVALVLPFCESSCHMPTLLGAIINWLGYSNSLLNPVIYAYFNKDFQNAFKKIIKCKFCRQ

[6] = biological target: T3, hSERT (Homo sapiens, UniProt P31645); test: [125I]RTI-55 binding, HEK-hSERT cells
T3 sequence (P31645 whole entry): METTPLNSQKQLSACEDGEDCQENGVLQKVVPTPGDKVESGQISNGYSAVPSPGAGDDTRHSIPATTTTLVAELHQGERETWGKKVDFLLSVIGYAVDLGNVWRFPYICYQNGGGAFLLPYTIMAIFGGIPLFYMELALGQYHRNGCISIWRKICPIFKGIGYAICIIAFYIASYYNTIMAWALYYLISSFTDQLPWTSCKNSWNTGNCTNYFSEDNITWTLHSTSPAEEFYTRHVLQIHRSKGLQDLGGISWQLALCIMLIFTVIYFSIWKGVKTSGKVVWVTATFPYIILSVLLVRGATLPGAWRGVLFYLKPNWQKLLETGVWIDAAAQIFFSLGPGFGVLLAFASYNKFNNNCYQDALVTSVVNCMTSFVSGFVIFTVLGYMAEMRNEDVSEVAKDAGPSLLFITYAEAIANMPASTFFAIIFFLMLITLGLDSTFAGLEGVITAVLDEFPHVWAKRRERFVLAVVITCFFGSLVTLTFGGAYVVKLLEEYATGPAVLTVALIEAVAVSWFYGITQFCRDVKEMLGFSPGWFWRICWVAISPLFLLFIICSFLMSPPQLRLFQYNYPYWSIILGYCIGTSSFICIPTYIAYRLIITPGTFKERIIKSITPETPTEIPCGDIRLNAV

[7] = biological target: T4, hDAT (Homo sapiens, UniProt Q01959); test: [3H]Dopamine release, HEK-hDAT cells; format: cell-based; details: HEK-hDAT cells
T4 sequence (Q01959 whole entry): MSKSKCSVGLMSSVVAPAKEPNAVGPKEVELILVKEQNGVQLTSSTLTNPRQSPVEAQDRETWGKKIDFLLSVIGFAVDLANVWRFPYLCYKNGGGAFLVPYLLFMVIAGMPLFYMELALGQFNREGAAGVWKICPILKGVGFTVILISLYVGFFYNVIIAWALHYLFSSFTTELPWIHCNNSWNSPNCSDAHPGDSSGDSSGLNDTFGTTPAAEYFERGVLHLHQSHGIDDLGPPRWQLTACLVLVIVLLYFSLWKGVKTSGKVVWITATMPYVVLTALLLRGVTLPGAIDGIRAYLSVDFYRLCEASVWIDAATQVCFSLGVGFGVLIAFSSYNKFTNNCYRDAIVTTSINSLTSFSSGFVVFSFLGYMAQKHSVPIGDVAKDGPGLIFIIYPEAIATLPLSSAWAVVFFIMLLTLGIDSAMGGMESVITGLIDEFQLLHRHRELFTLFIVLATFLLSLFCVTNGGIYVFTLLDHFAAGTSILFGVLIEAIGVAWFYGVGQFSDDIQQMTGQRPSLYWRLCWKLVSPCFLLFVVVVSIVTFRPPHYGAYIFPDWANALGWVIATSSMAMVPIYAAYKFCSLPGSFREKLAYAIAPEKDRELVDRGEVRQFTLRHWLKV

[8] = test system: rats trained to discriminate DOM (0.5 mg/kg) from saline; format: in vivo, rat; details: for Maximum %DAR (drug-appropriate responding): i.p., at dose of maximum DAR
[9] = biological target: T1, hNET; test: biochemical; format: binding
[10] = biological target: T5, human 5-HT2C receptor (Homo sapiens, UniProt P28335); test: biochemical; format: binding
T5 sequence (P28335 33-458): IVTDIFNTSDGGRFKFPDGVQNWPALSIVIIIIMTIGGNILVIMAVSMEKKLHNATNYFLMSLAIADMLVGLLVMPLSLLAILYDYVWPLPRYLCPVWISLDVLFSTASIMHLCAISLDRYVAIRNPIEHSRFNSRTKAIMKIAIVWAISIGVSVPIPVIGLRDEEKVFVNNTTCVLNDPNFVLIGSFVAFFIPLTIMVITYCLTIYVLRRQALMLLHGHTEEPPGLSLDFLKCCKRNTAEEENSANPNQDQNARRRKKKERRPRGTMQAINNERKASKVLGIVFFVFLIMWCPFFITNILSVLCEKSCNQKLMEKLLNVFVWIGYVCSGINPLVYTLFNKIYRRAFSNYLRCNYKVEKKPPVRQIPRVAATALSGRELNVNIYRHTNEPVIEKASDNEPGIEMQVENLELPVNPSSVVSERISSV

[11] = biological target: T6, human 5-HT2A receptor (Homo sapiens, UniProt P28223); test: IP-1 formation, HEK-5-HT2A cells; format: cell-based
T6 sequence (P28223 whole entry): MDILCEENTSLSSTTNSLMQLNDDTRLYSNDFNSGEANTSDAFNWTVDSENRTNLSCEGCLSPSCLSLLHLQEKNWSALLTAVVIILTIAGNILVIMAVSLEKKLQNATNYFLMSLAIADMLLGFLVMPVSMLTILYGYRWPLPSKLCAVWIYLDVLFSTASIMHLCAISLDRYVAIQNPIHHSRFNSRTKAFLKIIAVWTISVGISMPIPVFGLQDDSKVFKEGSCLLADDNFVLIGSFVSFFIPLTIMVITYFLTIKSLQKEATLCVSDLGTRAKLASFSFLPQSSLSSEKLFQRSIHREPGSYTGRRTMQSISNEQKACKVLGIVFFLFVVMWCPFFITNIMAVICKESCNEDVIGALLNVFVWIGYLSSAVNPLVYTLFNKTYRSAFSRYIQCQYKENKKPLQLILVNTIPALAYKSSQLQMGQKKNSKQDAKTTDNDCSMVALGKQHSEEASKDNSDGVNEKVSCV

[12] = biological target: T3, hSERT; test: [3H]Serotonin release, HEK-hSERT cells; format: cell-based
[13] = biological target: T4, hDAT; test: [3H]Dopamine uptake, HEK-hDAT cells; format: cell-based
[14] = biological target: T4, hDAT; test: [125I]RTI-55 binding, HEK-hDAT cells
[15] = test system: rats trained to discriminate LSD (0.1 mg/kg) from saline; format: in vivo, rat; details: LSD-trained rats; for Maximum %DAR (drug-appropriate responding): i.p., at dose of maximum DAR
[16] = biological target: T6, human 5-HT2A receptor; test: [3H]AA release from HEK-5-HT2A cells; format: cell-based
[17] = biological target: T5, human 5-HT2C receptor; test: cell-based
[18] = test system: Male Swiss–Webster mice; test: Locomotor activity; format: in vivo, mouse; details: mice, i.p.
[19] = biological target: T2, human 5-HT1A receptor; test: [3H]8-OH-DPAT binding, HEK-5-HT1A
[20] = biological target: T3, hSERT; test: [3H]Serotonin uptake, HEK-hSERT cells; format: cell-based
[21] = test system: rats trained to discriminate MDMA (1.5 mg/kg) from saline; format: in vivo, rat; details: MDMA-trained rats
[22] = biological target: T6, human 5-HT2A receptor; test: [125I]DOI binding, HEK-5-HT2A cells
[23] = biological target: T1, hNET; test: cell-based; remark: listed apart in the source

Structure (SMILES): COc1cc(Br)c(OC)c2c1[C@H](CN)C2 [((R)-4-bromo-3,6-dimethoxybenzocyclobuten-1-yl)methyl-amine)]
- Fold more potent at stimulating inositol phosphate turnover than AA release [1]: 65 fold

Structure (SMILES): COc1cc(CC(C)N)c(OC)cc1Cl (stereo not shown) [DOC, 2,5-Dimethoxy-4-chloroamphetamine]
- Rate of responding at dose of maximum DAR ([2]; 15 min pretreatment): 0.876±0.330 resp/s
- Rate of responding at dose of maximum DAR ([2]; 60 min pretreatment): 0.276±0.098 resp/s
- Rate of responding at dose of maximum DAR ([3]; DMT-trained rats, 15 min pretreatment): 0.354±0.125 resp/s
- Rate of responding at dose of maximum DAR ([3]; DMT-trained rats, 60 min pretreatment): 0.777±0.095 resp/s
- Maximum %DAR (drug-appropriate responding) ([3]; DMT-trained rats, i.p., 60 min pretreatment, at dose of maximum DAR): 83±17 %
- Dose(s) that decreased response rate ([3]; rat, in vivo): ≥ 1 mg/kg
- [3H]NE release % METH maximal effect [4]: ND Minimal
- EC50 [5]: > 10000 nM
- Emax ([5]; read-out: 5-HT1A Function [35S]GTPγS Binding % maximal effect): < 10%
- Ki [6]: > 10000 nM
- [3H]Dopamine release % METH maximal effect [7]: ND Minimal
- Rate of responding at dose of maximum DAR ([8]; 15 min pretreatment): 0.708±0.072 resp/s
- Rate of responding at dose of maximum DAR ([8]; 60 min pretreatment): 0.493±0.058 resp/s
- Maximum %DAR (drug-appropriate responding) ([8]; 15 min pretreatment): 83±17 %
- Maximum %DAR (drug-appropriate responding) ([8]; 60 min pretreatment): 87±13 %
- Ki [9]: > 7700 nM
- Ki [10]: 3.57 ± 0.56 nM
- EC50 [11]: 10.5 ± 2.6 nM
- Emax ([11]; read-out: 5-HT2A Function IP-1 formation % maximal effect): 102 ± 4.2%
- [3H]Serotonin release % PCA maximal effect [12]: ND Minimal
- IC50 [13]: > 10000 nM
- Ki [14]: > 10000 nM
- Rate of responding at dose of maximum DAR ([15]; 15 min pretreatment): 0.402±0.049 resp/s
- Rate of responding at dose of maximum DAR ([15]; 60 min pretreatment): 0.410±0.139 resp/s
- Maximum %DAR (drug-appropriate responding) ([15]; 15 min pretreatment): 81±16 %
- Maximum %DAR (drug-appropriate responding) ([15]; 60 min pretreatment): 95±3 %
- EC50 [16]: 2.91 ± 0.66 nM
- Emax ([16]; read-out: 5-HT2A Function [3H]AA release % maximal effect): 81 ± 16%
- EC50 [17]: 14.6 ± 3 nM
- Emax ([17]; read-out: 5-HT2C Function IP-formation % maximal effect): 97 ± 19%
- Duration of depressant effects [18]: 30 to 80 min
- Onset of depressant effects (within, after injection) [18]: ≤ 10 min
- Ki [19]: > 9200 nM
- IC50 [20]: > 8600 nM
- Rate of responding at dose of maximum DAR ([21]; 15 min pretreatment): 0.449±0.104 resp/s
- Rate of responding at dose of maximum DAR ([21]; 60 min pretreatment): 0.356±0.141 resp/s
- Maximum %DAR (drug-appropriate responding) ([21]; i.p., 60 min pretreatment, at dose of maximum DAR): 60% and 60±24 ^2%
- Ki [22]: 4 ± 0.45 nM
- IC50 [23]: > 8400 nM
